In patent US9884067B2, “Androgen receptor down-regulating agents and uses thereof” (UNIVERSITY OF MARYLAND EASTERN SHORE, priority 2013, dated 2018):
pIC50: −log10 of the molar value. Where “and” joins values, the source holds several entries; their conditions need not be identical. Equal entries are not always repeated. Where two headings read alike, the source gives them in different places. Blank lines part the entries; values can stand above or below the compound they belong to.

Experiments:
human CYP17A1 (CYP171dH) = molecular target: T1, human CYP17A1 (CYP171dH) (Homo sapiens, UniProt P05093); test: CYP17 inhibition studies; format: biochemical
T1 sequence (P05093 with tags, fused parts or gaps limits assumed): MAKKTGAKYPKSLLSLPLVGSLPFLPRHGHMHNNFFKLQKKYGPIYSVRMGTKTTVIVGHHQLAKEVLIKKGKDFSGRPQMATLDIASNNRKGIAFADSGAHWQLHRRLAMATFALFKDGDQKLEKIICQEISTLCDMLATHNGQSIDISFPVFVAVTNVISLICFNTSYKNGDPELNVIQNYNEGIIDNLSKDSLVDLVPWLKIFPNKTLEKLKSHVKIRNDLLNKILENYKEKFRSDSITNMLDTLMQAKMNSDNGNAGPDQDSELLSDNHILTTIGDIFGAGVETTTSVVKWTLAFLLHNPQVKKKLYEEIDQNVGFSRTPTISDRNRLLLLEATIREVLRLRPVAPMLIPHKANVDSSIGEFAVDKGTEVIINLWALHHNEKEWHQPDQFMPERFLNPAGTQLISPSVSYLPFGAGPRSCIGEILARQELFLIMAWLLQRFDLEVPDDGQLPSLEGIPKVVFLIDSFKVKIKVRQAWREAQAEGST
Procedure: Some compounds were evaluated for their ability to inhibit CYP17 enzyme. A truncated version of human CYP17A1 (CYP171dH) was expressed in E. coli and then purified to homogeneity.

AR-3 (also called AR-V7) = molecular target: T2, AR-3 (also called AR-V7) (Homo sapiens, UniProt P10275); test: Down-regulation of truncated AR splice variant, western blot in CWR22rv1 cells; format: cell-based; details: CWR22rv1 prostate cancer cell line
T2 construct: endogenous in cells; host or cells: CWR22Rv1
T2 sequence (P10275 1-644 isoform P10275-3): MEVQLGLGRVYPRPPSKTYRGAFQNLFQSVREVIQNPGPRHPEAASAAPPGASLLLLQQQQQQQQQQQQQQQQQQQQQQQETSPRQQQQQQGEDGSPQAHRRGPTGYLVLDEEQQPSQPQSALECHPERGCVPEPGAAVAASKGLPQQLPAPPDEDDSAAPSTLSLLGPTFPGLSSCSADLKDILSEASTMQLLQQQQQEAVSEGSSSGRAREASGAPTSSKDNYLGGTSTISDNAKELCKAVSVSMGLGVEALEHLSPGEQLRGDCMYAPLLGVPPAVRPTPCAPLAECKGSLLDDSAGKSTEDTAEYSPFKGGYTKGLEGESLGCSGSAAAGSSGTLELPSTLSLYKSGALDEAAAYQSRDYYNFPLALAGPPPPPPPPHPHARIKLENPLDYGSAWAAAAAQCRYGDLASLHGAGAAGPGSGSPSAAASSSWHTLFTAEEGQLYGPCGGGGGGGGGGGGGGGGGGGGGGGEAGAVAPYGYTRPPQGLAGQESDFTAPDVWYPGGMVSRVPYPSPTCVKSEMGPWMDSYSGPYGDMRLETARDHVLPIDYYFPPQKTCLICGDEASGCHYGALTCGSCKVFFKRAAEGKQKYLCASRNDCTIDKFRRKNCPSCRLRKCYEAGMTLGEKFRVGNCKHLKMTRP
Procedure: (§1) Due to the potential implication of AR splice variants lacking the ligand-binding domain (truncated AR) in driving the progression of CRPC, the effects of the compounds on the down-regulation of AR-3 (also called AR-V7) were determined.
(§2) For the Western blot analyses, LNCaP or CWR22v1 prostate cancer cells were cultured. The cells were then treated with the indicated compounds and whole cell lysates were prepared using RIPA lysis buffer (Sigma Aldrich) and protease and phosphatase inhibitors (Sigma Aldrich). All of the antibodies were ordered from cell signaling technology. Protein content was determined using the Bradford Assay (Bio-Rad, Hercules, Calif., USA). Protein was subjected to SDS-PAGE and transferred onto nitrocellulosemembrane. Membranes were then incubated with secondary antibody (cell signaling technology) at room temperature for 1 hour. Bands were visualized by chemiluminescence (Millipore). Protein expression was normalized to β-actin and densitometry was carried out using Image J or ImageQuant 5.0 (Molecular Dynamics, Sunnyvale, Calif., USA).

full-length AR = test: Down-regulation of full-length AR, western blot in CWR22rv1 cells; format: cell-based, human; details: CWR22rv1 prostate cancer cell line
Procedure: as §1, §2

LNCaP cells = test: MTT colorimetric anti-proliferative assay; format: cell-based, human
Procedure: The cells were treated for 7 days with renewal of test compound and media on day 4. On the 7th day, medium was renewed and MTT (3-(4,5-dimethylthiazol-2-yl)-2,5-diphenyl-2H-tetrazolium bromide) (Sigma, St Louis, Mo., USA) solution (0.5 mg MTT per ml of media) was added to the medium such that the ratio of MTT: medium was 1:10. The cells were incubated with MTT for 2 hours. The medium was then aspirated and DMSO was added to solubilize the violet MTT-formazan product.

[1] = Solubility in ethanol or DMSO; format: physicochemical
AR = molecular target: T3, AR (Homo sapiens, UniProt P10275, T878A); test: AR down-regulation, western blot analysis in LNCaP cells; format: cell-based; details: 24 h, western blot
T3 construct: host or cells: LNCaP
T3 sequence (P10275 1-920 T878A): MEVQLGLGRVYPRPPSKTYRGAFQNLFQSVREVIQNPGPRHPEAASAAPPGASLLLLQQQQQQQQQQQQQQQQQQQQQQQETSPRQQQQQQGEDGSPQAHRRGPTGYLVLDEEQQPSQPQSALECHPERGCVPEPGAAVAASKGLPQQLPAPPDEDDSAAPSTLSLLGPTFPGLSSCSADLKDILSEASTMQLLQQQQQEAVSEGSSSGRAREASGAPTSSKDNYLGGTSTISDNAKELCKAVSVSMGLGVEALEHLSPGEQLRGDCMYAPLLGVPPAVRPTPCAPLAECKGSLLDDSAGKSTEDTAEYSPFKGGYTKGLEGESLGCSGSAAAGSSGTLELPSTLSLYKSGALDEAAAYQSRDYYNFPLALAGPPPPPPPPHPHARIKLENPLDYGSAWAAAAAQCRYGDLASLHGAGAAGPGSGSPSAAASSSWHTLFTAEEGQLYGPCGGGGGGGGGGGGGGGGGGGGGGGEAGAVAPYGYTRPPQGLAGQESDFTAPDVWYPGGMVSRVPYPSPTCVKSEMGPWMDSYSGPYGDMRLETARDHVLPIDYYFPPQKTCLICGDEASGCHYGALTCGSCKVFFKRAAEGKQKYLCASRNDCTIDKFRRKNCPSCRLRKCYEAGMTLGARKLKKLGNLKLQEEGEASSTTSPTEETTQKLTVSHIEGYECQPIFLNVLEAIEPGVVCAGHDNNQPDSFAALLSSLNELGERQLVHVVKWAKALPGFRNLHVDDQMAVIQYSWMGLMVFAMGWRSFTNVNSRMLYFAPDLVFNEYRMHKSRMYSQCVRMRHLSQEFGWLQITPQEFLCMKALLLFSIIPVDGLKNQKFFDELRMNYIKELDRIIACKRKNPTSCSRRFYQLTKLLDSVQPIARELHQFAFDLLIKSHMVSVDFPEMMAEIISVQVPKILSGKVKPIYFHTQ
Procedure: For the Western blot analyses, LNCaP or CWR22v1 prostate cancer cells were cultured. The cells were then treated with the indicated compounds and whole cell lysates were prepared using RIPA lysis buffer (Sigma Aldrich) and protease and phosphatase inhibitors (Sigma Aldrich). All of the antibodies were ordered from cell signaling technology. Protein content was determined using the Bradford Assay (Bio-Rad, Hercules, Calif., USA). Protein was subjected to SDS-PAGE and transferred onto nitrocellulosemembrane. Membranes were then incubated with secondary antibody (cell signaling technology) at room temperature for 1 hour. Bands were visualized by chemiluminescence (Millipore). Protein expression was normalized to β-actin and densitometry was carried out using Image J or ImageQuant 5.0 (Molecular Dynamics, Sunnyvale, Calif., USA). CWR22Rv1 cells were used for endogenous levels of splice variant AR-3. Protein levels were analyzed with respective antibodies; full length AR and β-actin antibodies were purchased from cell signaling, antibody specific for splice variant AR-3 was obtained from Dr. Yun Qiu, University of Maryland, School of Medicine, Baltimore.

AR in LNCaP cells = molecular target: T4, AR in LNCaP cells (Homo sapiens, UniProt P10275, T878A); test: Whole cell competitive binding assay with [3H]R1881; details: 30 µM
T4 sequence (P10275 1-920 T878A): T3 sequence (P10275 1-920 T878A)
Procedure: The androgen receptor competitive binding assays were performed with the synthetic androgen methyltrienolone [^3H]R1881. […] To determine the kinetics of [^3H]R1881 binding to the LNCaP AR cells were plated (2-3×10^5 cells/well) in 24 well multiwell dishes in steroid-free medium and allowed to attach. […] Following a 2 hour incubation period at 37° C., cells were washed twice with ice-cold DPBS and solubilized in DPBS containing 0.5% SDS and 20% glycerol. Extracts were removed and cell associated radioactivity counted in a scintillation counter. The data was analyzed, including Kd and Bmax determination, by nonlinear regression using Graphpad Prism software (GraphPad Software, Inc, San Diego, Calif.). When the concentration of [^3H]R1881 required to almost saturate AR in both cell lines was established (5.0 nM), the ability of the test compounds (1 nM-10 μM) to displace [^3H]R1881 (5.0 nM) from the receptors was determined as described above. The IC50 of each compound was determined by nonlinear regression with Graphpad Prism software (GraphPad Software, Inc, San Diego, Calif.).

[2] = each in duplicate, from dose-response curves
[3] = Homo sapiens, LNCaP, 168 h, LNCaP, MTT, 7 days, Table 4, read-out: GI50 of C-3 modified compounds
[4] = Homo sapiens, LNCaP, 168 h, LNCaP, MTT, 7 days, Table 2, read-out: GI50 of C-17 modified compounds

SMILES: C[C@]12CCC(=NO)C=C1CC[C@@H]1[C@@H]2CC[C@]2(C)C(n3cnc4ccccc43)=CC[C@@H]12 (mixture of isomers) [Compound 36, 3-((EZ)-Hydroximino)-17-(1H-Benzimidazol-1-yl)-androsta-4,16-diene]
- pIC50 (human CYP17A1 (CYP171dH); [2]): 3.59 to 4.03 and 3.59
- down-regulation of truncated AR (AR-3) (AR-3 (also called AR-V7)): significant down-regulation
- down-regulation of full-length AR (full-length AR): significant down-regulation
- GI50 (LNCaP cells; [3]): 1.91 µM

SMILES: C[C@]12CCC(=NOc3ccccc3)C=C1CC[C@@H]1[C@@H]2CC[C@]2(C)C(n3cnc4ccccc43)=CC[C@@H]12 (mixture of isomers) [Compound 37, 3-((EZ)—O-Phenyloxime)-17-(1H-Benzimidazol-1-yl)-androsta-4,16-diene]
- solubility in ethanol or DMSO [1]: limited solubility in ethanol or DMSO

SMILES: C[C@]12CC[C@H](O)CC1=CC[C@@H]1[C@@H]2CC[C@]2(C)C(c3cccnc3)=CC[C@@H]12 [Abiraterone alcohol (3b), abiraterone alcohol, reference compound]
- pIC50 (human CYP17A1 (CYP171dH); [2]): 6.69
- GI50 (LNCaP cells; LNCaP, MTT, 7 days, Table 2, read-out: GI50 of C-17 modified compounds): 1.97 µM

- pIC50 (human CYP17A1 (CYP171dH); [2]): 6.12
- GI50 (LNCaP cells; [4]): 3.35 µM
SMILES: C[C@]12CC[C@H](O)CC1=CC[C@@H]1[C@@H]2CC[C@]2(C)C(n3cnc4ccccc43)=CC[C@@H]12 [Compound 5, 3β-Hydroxy-17-(1H-benzimidazol-1-yl)-androsta-5,16-diene, reference compound]
- down-regulation of full-length AR (full-length AR): significant down-regulation

SMILES: C[C@]12CC[C@H](O)CC1=CC[C@@H]1[C@@H]2CC[C@]2(C)C(n3ccc4ccccc43)=CC[C@@H]12 [Compound 16, 3β-Hydroxy-17-(1H-indol-1-yl)-androsta-5,16-diene]
- pIC50 (human CYP17A1 (CYP171dH); [2]): 3.59 to 4.03 and 3.89
- AR down-regulation (ARD) activity, in words (AR): up-regulation of AR
- melting point: 142 to 145 °C
- GI50 (LNCaP cells; [4]): > 100 µM

SMILES: COc1ccc(NCC2=C(n3cnc4ccccc43)[C@@]3(C)CC[C@H]4[C@@H](CC=C5C[C@@H](O)CC[C@@]54C)[C@@H]3C2)cc1OC [Compound 31, 3β-Hydroxy-17-(1H-benzimidazol-1-yl)-16-(((3,4-dimethoxyphenyl)amino)methyl)-androsta-5,16-diene]
- AR down-regulation (ARD) activity, in words (AR): significant loss of ARD
- down-regulation of truncated AR (AR-3) (AR-3 (also called AR-V7)): significant down-regulation
- down-regulation of full-length AR (full-length AR): significant down-regulation
- GI50 (LNCaP cells; Homo sapiens, LNCaP, 168 h, LNCaP cells, MTT, 7 days, Table 3, read-out: GI50 of C-16 modified compounds): > 100 µM

SMILES: C[C@]12CC[C@H](OC(=O)c3ccccn3)CC1=CC[C@@H]1[C@@H]2CC[C@]2(C)C(n3cnc4ccccc43)=CC[C@@H]12 [Compound 41, 3β-(Pyridine-2-carboxylate)-17-(1H-benzimidazol-1-yl)-androsta-5,16-diene]
- solubility in ethanol or DMSO [1]: limited solubilities in ethanol or DMSO

SMILES: C[C@]12CC[C@H](OC(=O)c3cccnc3)CC1=CC[C@@H]1[C@@H]2CC[C@]2(C)C(n3cnc4ccccc43)=CC[C@@H]12 [Compound 42, 3β-(Pyridine-3-carboxylate)-17-(1H-benzimidazol-1-yl)-androsta-5,16-diene]
- solubility in ethanol or DMSO [1]: limited solubilities in ethanol or DMSO

SMILES: C[C@]12CC[C@H](OC(=O)c3ccncc3)CC1=CC[C@@H]1[C@@H]2CC[C@]2(C)C(n3cnc4ccccc43)=CC[C@@H]12 [Compound 43, 3β-(Pyridine-4-carboxylate)-17-(1H-benzimidazol-1-yl)-androsta-5,16-diene]
- inhibition of [3H]R1881 binding / displacement (AR in LNCaP cells): ~53%
- GI50 (LNCaP cells; read-out: GI50 of C-3 modified compounds): 2.57 µM

SMILES: Cc1nccn1C(=O)O[C@H]1CC[C@@]2(C)C(=CC[C@@H]3[C@@H]2CC[C@]2(C)C(n4cnc5ccccc54)=CC[C@@H]32)C1 [Compound 48, 3β-(2-Methyl-1H-imidazole-1-carboxylate)-17-(1H-benzimidazol-1-yl)-androsta-5,16-diene]
- pIC50 (human CYP17A1 (CYP171dH); [2]): 3.59 to 4.03 and 4.03
- melting point: 186 to 187 °C
- GI50 (LNCaP cells; [3]): 5.34 µM
- fold decrease in anti-proliferative activity (LNCaP cells; relative to 47): 6 fold

SMILES: C[C@]12CC[C@H](O)CC1=CC[C@@H]1[C@@H]2CC[C@]2(C)C(n3ccnc3)=CC[C@@H]12 [VN/85-1, 3β-hydroxy-17-(1H-imidazole-1-yl)androsta-5,16-diene, reference compound]
- pIC50 (human CYP17A1 (CYP171dH)): 6.90
